For assay [1], the target named is Platelet-activating factor receptor (Canis lupus familiaris). In words: Inhibition of [3H]PAF binding to dog platelets.
For assay [2] the target is unchanged. In words: Inhibition of [3H]PAF binding to dog platelets. This is another data set of the same source.

SMILES strings stand for the structures.

Compound `O=C(C=C(c1ccccc1)c1ccccc1)NCCCCc1cccnc1` displayed a 50% inhibitory concentration (IC50) in assay [1] of 450 nM. `CC[C@H](CCCc1cccnc1)NC(=O)/C=C/C=C(c1ccc(OC)cc1)c1ccc(OC)cc1` came in with an IC50 in assay [1] of 120 nM. The compound `COc1ccc(C(=C/C=C/C(=O)Nc2ccc(-c3cccnc3)cc2)c2ccc(OC)cc2)cc1` came in with an IC50 in assay [1] of 10 nM. `COc1ccc(C(=C/C=C/C(=O)NCCCCc2cccnc2)c2ccc(OC)c(OC)c2)cc1OC` yielded an IC50 in assay [1] of 55 nM.

With `CCCCC/C(=C/C=C/C(=O)N[C@H](C)CCCc1cccnc1)c1ccc(OC)cc1`, the IC50 in assay [1] came to 10 nM. For the compound `COc1ccc(/C(=C/C=C/C(=O)N[C@H](C)CCCc2cccnc2)c2ccccc2)cc1`, the IC50 in assay [1] stood at 2 nM. The compound `COc1ccc(C(=C/C=C/C(=O)NC(C)(C)CCCc2cccnc2)c2ccc(OC)cc2)cc1` gave an IC50 in assay [1] of 85 nM.

Consider `COc1ccc(C(=C/C=C/C(=O)Nc2ccc(Cc3cccnc3)cc2)c2ccc(OC)cc2)cc1`, for which the concentration for half-maximal inhibition (IC50) in assay [1] is 250 nM.

In assay [1], `CCC/C(=C\C=C\C(=O)N[C@H](C)CCCc1cccnc1)c1ccc(OC)cc1` registered an IC50 of 50 nM. As for `O=C(CCCCC=C(c1ccccc1)c1ccccc1)NCCCCc1cccnc1`, the half-inhibitory concentration (IC50) in assay [1] is 550 nM.

Regarding `COc1cccc(/C(=C\C=C\C(=O)NCCCCc2cccnc2)c2cccc(F)c2)c1`, the IC50 in assay [1] worked out at 25 nM. `CC[C@@H](CCCc1cccnc1)NC(=O)/C=C/C=C(c1ccc(OC)cc1)c1ccc(OC)cc1` yielded an IC50 in assay [2] of 400 nM. As for `COc1ccccc1C(=C/C=C/C(=O)NCCCCc1cccnc1)c1ccccc1OC`, in assay [1], the IC50 is 40 nM. In assay [2], `COc1ccc(/C(=C/C=C/C(=O)N[C@H](C)CCCc2cccnc2)C(C)C)cc1` came in with a concentration for half-maximal inhibition (IC50) of 40 nM. For `COc1cccc(C(=C/C=C/C(=O)N[C@@H](C)CCCc2cccnc2)c2cccc(OC)c2)c1`, the IC50 in assay [2] worked out at 300 nM.

In assay [1], `O=C(C/C=C/C=C(c1ccccc1)c1ccccc1)NCCCCc1cccnc1` showed an IC50 of 55 nM. As for `Cc1ccc(C(=C/C=C/C(=O)N[C@H](C)CCCc2cccnc2)c2ccc(C)cc2)cc1`, in assay [1], the concentration for half-maximal inhibition (IC50) was found to be 250 nM. `COc1ccc(/C(=C\C=C\C(=O)N[C@H](C)CCCc2cccnc2)C2CCCCC2)cc1` displayed an IC50 in assay [1] of 20 nM. For `COc1ccc(C(=C/C=C/C(=O)NC(C)CCCc2cccnc2C)c2ccc(OC)cc2)cc1` (stereo unspecified), the IC50 in assay [2] worked out at 30 nM.

Turning to `O=C(/C=C/C=C(c1cccc(F)c1)c1cccc(F)c1)NCCCCc1cccnc1`, in assay [1], the IC50 is 20 nM.

Compound `COc1ccc(/C(=C/C=C/C(=O)N[C@H](C)CCCc2cccnc2)C2CCCCC2)cc1` returned an IC50 in assay [1] of 20 nM.

The compound `O=C(CCC=C(c1ccccc1)c1ccccc1)NCCCCc1cccnc1` returned an IC50 in assay [1] of 100 nM.

Consider `COc1ccc(C(=C/C=C/C(=O)N[C@@H](CCCc2cccnc2)C2CCCC2)c2ccc(OC)cc2)cc1`, for which the IC50 in assay [1] is over 1000 nM.

In assay [2], `COc1cccc(/C(=C/C=C/C(=O)NCCCCc2cccnc2)c2cccc(F)c2)c1` had a half-maximal inhibitory concentration (IC50) of 40 nM. In assay [1], `O=C(/C=C\C=C(c1ccccc1)c1ccccc1)NCCCCc1cccnc1` yielded an IC50 of 400 nM. `CCC[C@H](CCCc1cccnc1)NC(=O)/C=C/C=C(c1ccc(OC)cc1)c1ccc(OC)cc1` registered an IC50 in assay [1] of over 1000 nM. `COc1ccc(/C(C)=C/C=C/C(=O)N[C@H](C)CCCc2cccnc2)cc1` came in with an IC50 in assay [2] of 25 nM. In assay [1], `COc1ccc(C(=C/C=C/C(=O)NCCCCc2cccnc2)c2ccc(OC)cc2)cc1` displayed an IC50 of 25 nM. In assay [1], `O=C(/C=C/C=C(c1ccc(F)cc1)c1ccc(F)cc1)NCCCCc1cccnc1` had an IC50 of 40 nM. In the case of `COc1ccc(C(=C/C=C/C(=O)NCCOCc2cccnc2)c2ccc(OC)cc2)cc1`, the IC50 in assay [2] stood at 250 nM. As for `CC/C(=C\C=C\C(=O)N[C@H](C)CCCc1cccnc1)c1ccc(OC)cc1`, the IC50 in assay [2] is 30 nM. In assay [1], `CCCC[C@H](CCCc1cccnc1)NC(=O)/C=C/C=C(c1ccc(OC)cc1)c1ccc(OC)cc1` registered an IC50 of over 1000 nM. `COc1ccc(C(=C/C=C/C(=O)N[C@@H](CCCc2cccnc2)C2CC2)c2ccc(OC)cc2)cc1`: the IC50 in assay [1] was 60 nM. In the case of `O=C(/C=C/C=C(c1ccc(Cl)cc1)c1ccc(Cl)cc1)NCCCCc1cccnc1`, the IC50 in assay [2] is 60 nM. `COc1cccc(C(=C/C=C/C(=O)NCCCCc2cccnc2)c2cccc(OC)c2)c1`: the IC50 in assay [1] came out at 2 nM. Regarding `CCCCCCCC/C(=C\C=C\C(=O)N[C@H](C)CCCc1cccnc1)c1ccc(OC)cc1`, the IC50 in assay [2] is 5 nM. On to `COc1ccc(/C(=C\C=C\C(=O)N[C@H](C)CCCc2cccnc2)c2ccccc2)cc1`, for which the IC50 in assay [2] was determined as 4 nM.

`CCCC/C(=C\C=C\C(=O)N[C@H](C)CCCc1cccnc1)c1ccc(OC)cc1` came in with an IC50 in assay [1] of 14 nM.

In assay [1], `COc1ccc(C(=C/C=C/C(=O)N[C@H](C)CCCc2cccnc2)c2ccc(OC)c(OC)c2)cc1OC` had an IC50 of 50 nM. Still for that read-out and setting: for `COc1ccc(/C=C/C=C/C(=O)N[C@H](C)CCCc2cccnc2)cc1` the value was 30 nM; for `COc1cccc(C(=C/C=C/C(=O)N[C@H](C)CCCc2cccnc2)c2cccc(OC)c2)c1`, 35 nM.

For orientation: IC50 means the concentration that inhibits the measured activity by half. High values mean weaker potency, low ones greater potency.
